Source: patent publication US20220304978A1, “INHIBITING MESANGIAL CELL ACTIVATION” (Chinook Therapeutics, Inc., priority 2019, published 2022)

Tested on: kidney tissue of g-ddY mice
Assay: IPA upstream regulator analysis, g-ddY kidney RNA-seq
Conditions: 30 mg/kg/day
[1] = ligand-dependent nuclear receptor

CCCCN(CCCC)C(=O)CN1C[C@H](c2ccc3c(c2)OCO3)[C@@H](C(=O)O)[C@@H]1c1ccc(OC)cc1 [atrasentan, (2R,3R,4S)-4-(1,3-benzodioxol-5-yl)-1-[2-(dibutylamino)-2-oxoethyl]-2-(4-methoxyphenyl)pyrrolidine-3-carboxylic acid]
AHR Activation z-score [1]: 2.092 | AHR Predicted Activation State [1]: Activated | ESR1 Activation z-score [1]: −2.439 | ESR1 Predicted Activation State [1]: Inhibited | ESRRA Activation z-score [1]: 2.517 | ESRRA Predicted Activation State [1]: Activated | NR3C2 Activation z-score [1]: −2.191 | NR3C2 Predicted Activation State [1]: Inhibited | NR4A1 Activation z-score [1]: −2.488 | NR4A1 Predicted Activation State [1]: Inhibited | PPARA Activation z-score [1]: 3.182 | PPARA Predicted Activation State [1]: Activated | PPARG Activation z-score [1]: 3.581 | PPARG Predicted Activation State [1]: Activated | RXRA Activation z-score [1]: 2.96 | RXRA Predicted Activation State [1]: Activated | ARNT2 Activation z-score (transcription regulator): −2.079 | ARNT2 Predicted Activation State (transcription regulator): Inhibited | BCL6 Activation z-score (transcription regulator): 2.514 | BCL6 Predicted Activation State (transcription regulator): Activated | CBX5 Activation z-score (transcription regulator): 2.355 | CBX5 Predicted Activation State (transcription regulator): Activated | CCND1 Activation z-score (transcription regulator): −3.003 | CCND1 Predicted Activation State (transcription regulator): Inhibited | CEBPD Activation z-score (transcription regulator): −2.154 | CEBPD Predicted Activation State (transcription regulator): Inhibited | CTNNB1 Activation z-score (transcription regulator): −3.373 | CTNNB1 Predicted Activation State (transcription regulator): Inhibited | DACH1 Activation z-score (transcription regulator): 2.354 | DACH1 Predicted Activation State (transcription regulator): Activated | ECSIT Activation z-score (transcription regulator): −2.72 | ECSIT Predicted Activation State (transcription regulator): Inhibited | EGR1 Activation z-score (transcription regulator): −2.766 | EGR1 Predicted Activation State (transcription regulator): Inhibited | ELK1 Activation z-score (transcription regulator): −2.151 | ELK1 Predicted Activation State (transcription regulator): Inhibited | ERG Activation z-score (transcription regulator): −3.672 | ERG Predicted Activation State (transcription regulator): Inhibited | ETS1 Activation z-score (transcription regulator): −2.096 | ETS1 Predicted Activation State (transcription regulator): Inhibited | FEV Activation z-score (transcription regulator): −3.651 | FEV Predicted Activation State (transcription regulator): Inhibited | FOXC1 Activation z-score (transcription regulator): −2.563 | FOXC1 Predicted Activation State (transcription regulator): Inhibited | FOXC2 Activation z-score (transcription regulator): −3.361 | FOXC2 Predicted Activation State (transcription regulator): Inhibited | FOXF1 Activation z-score (transcription regulator): −2.253 | FOXF1 Predicted Activation State (transcription regulator): Inhibited | FOXL2 Activation z-score (transcription regulator): −3.108 | FOXL2 Predicted Activation State (transcription regulator): Inhibited | FOXM1 Activation z-score (transcription regulator): −2.307 | FOXM1 Predicted Activation State (transcription regulator): Inhibited | FOXO3 Activation z-score (transcription regulator): 2.338 | FOXO3 Predicted Activation State (transcription regulator): Activated | GATA1 Activation z-score (transcription regulator): −3.309 | GATA1 Predicted Activation State (transcription regulator): Inhibited | GFI1 Activation z-score (transcription regulator): 2.82 | GFI1 Predicted Activation State (transcription regulator): Activated | GPS2 Activation z-score (transcription regulator): 2.51 | GPS2 Predicted Activation State (transcription regulator): Activated | HIF1A Activation z-score (transcription regulator): −2.042 | HIF1A Predicted Activation State (transcription regulator): Inhibited | HNF1A Activation z-score (transcription regulator): 4.107 | HNF1A Predicted Activation State (transcription regulator): Activated | HNF1B Activation z-score (transcription regulator): 2.944 | HNF1B Predicted Activation State (transcription regulator): Activated | HNF4A Activation z-score (transcription regulator): 4.856 | HNF4A Predicted Activation State (transcription regulator): Activated | HOXC6 Activation z-score (transcription regulator): −2.35 | HOXC6 Predicted Activation State (transcription regulator): Inhibited | IKZF1 Activation z-score (transcription regulator): 3.472 | IKZF1 Predicted Activation State (transcription regulator): Activated | IKZF3 Activation z-score (transcription regulator): 3.165 | IKZF3 Predicted Activation State (transcription regulator): Activated | IRF7 Activation z-score (transcription regulator): −4.492 | IRF7 Predicted Activation State (transcription regulator): Inhibited | IRF8 Activation z-score (transcription regulator): −2.577 | IRF8 Predicted Activation State (transcription regulator): Inhibited | JUNB Activation z-score (transcription regulator): −3.721 | JUNB Predicted Activation State (transcription regulator): Inhibited | KDM5A Activation z-score (transcription regulator): −5.858 | KDM5A Predicted Activation State (transcription regulator): Inhibited | KLF2 Activation z-score (transcription regulator): 2.742 | KLF2 Predicted Activation State (transcription regulator): Activated | KLF4 Activation z-score (transcription regulator): −3.94 | KLF4 Predicted Activation State (transcription regulator): Inhibited | KLF15 Activation z-score (transcription regulator): 3.401 | KLF15 Predicted Activation State (transcription regulator): Activated | KMT2A Activation z-score (transcription regulator): −2.246 | KMT2A Predicted Activation State (transcription regulator): Inhibited | LHX1 Activation z-score (transcription regulator): 4.214 | LHX1 Predicted Activation State (transcription regulator): Activated | MECP2 Activation z-score (transcription regulator): −2.419 | MECP2 Predicted Activation State (transcription regulator): Inhibited | MEF2D Activation z-score (transcription regulator): −3.056 | MEF2D Predicted Activation State (transcription regulator): Inhibited | MEOX2 Activation z-score (transcription regulator): 2.54 | MEOX2 Predicted Activation State (transcription regulator): Activated | MESP1 Activation z-score (transcription regulator): −2.646 | MESP1 Predicted Activation State (transcription regulator): Inhibited | MESP2 Activation z-score (transcription regulator): −2.449 | MESP2 Predicted Activation State (transcription regulator): Inhibited | MLXIPL Activation z-score (transcription regulator): 2.871 | MLXIPL Predicted Activation State (transcription regulator): Activated | MRTFA Activation z-score (transcription regulator): −3.84 | MRTFA Predicted Activation State (transcription regulator): Inhibited | MRTFB Activation z-score (transcription regulator): −4.734 | MRTFB Predicted Activation State (transcription regulator): Inhibited | MTPN Activation z-score (transcription regulator): −2.942 | MTPN Predicted Activation State (transcription regulator): Inhibited | MYCN Activation z-score (transcription regulator): 4.584 | MYCN Predicted Activation State (transcription regulator): Activated | Msx3 Activation z-score (transcription regulator): −2 | Msx3 Predicted Activation State (transcription regulator): Inhibited | NCOA3 Activation z-score (transcription regulator): −2.143 | NCOA3 Predicted Activation State (transcription regulator): Inhibited | NEUROG1 Activation z-score (transcription regulator): 3 | NEUROG1 Predicted Activation State (transcription regulator): Activated | NFE2L2 Activation z-score (transcription regulator): 3.389 | NFE2L2 Predicted Activation State (transcription regulator): Activated | NFKB1 Activation z-score (transcription regulator): −3.239 | NFKB1 Predicted Activation State (transcription regulator): Inhibited | NRIP1 Activation z-score (transcription regulator): −2.267 | NRIP1 Predicted Activation State (transcription regulator): Inhibited | PAX7 Activation z-score (transcription regulator): −2.883 | PAX7 Predicted Activation State (transcription regulator): Inhibited | PCGF2 Activation z-score (transcription regulator): 2 | PCGF2 Predicted Activation State (transcription regulator): Activated | PDX1 Activation z-score (transcription regulator): −2.958 | PDX1 Predicted Activation State (transcription regulator): Inhibited | PITX2 Activation z-score (transcription regulator): 3.976 | PITX2 Predicted Activation State (transcription regulator): Activated | PPARGC1A Activation z-score (transcription regulator): 8.123 | PPARGC1A Predicted Activation State (transcription regulator): Activated | PPARGC1B Activation z-score (transcription regulator): 2.664 | PPARGC1B Predicted Activation State (transcription regulator): Activated | PRDM1 Activation z-score (transcription regulator): 2.281 | PRDM1 Predicted Activation State (transcription regulator): Activated | RB1 Activation z-score (transcription regulator): 4.435 | RB1 Predicted Activation State (transcription regulator): Activated | REL Activation z-score (transcription regulator): −2.451 | REL Predicted Activation State (transcription regulator): Inhibited | RELA Activation z-score (transcription regulator): −4.344 | RELA Predicted Activation State (transcription regulator): Inhibited | RUNX3 Activation z-score (transcription regulator): 3.355 | RUNX3 Predicted Activation State (transcription regulator): Activated | SMAD2 Activation z-score (transcription regulator): −2.323 | SMAD2 Predicted Activation State (transcription regulator): Inhibited | SMAD3 Activation z-score (transcription regulator): −2.952 | SMAD3 Predicted Activation State (transcription regulator): Inhibited | SMAD4 Activation z-score (transcription regulator): −2.417 | SMAD4 Predicted Activation State (transcription regulator): Inhibited | SMAD7 Activation z-score (transcription regulator): 3.504 | SMAD7 Predicted Activation State (transcription regulator): Activated | SMARCA4 Activation z-score (transcription regulator): −3.211 | SMARCA4 Predicted Activation State (transcription regulator): Inhibited | SMYD1 Activation z-score (transcription regulator): 2.213 | SMYD1 Predicted Activation State (transcription regulator): Activated | SNAI1 Activation z-score (transcription regulator): −2.699 | SNAI1 Predicted Activation State (transcription regulator): Inhibited | SOX4 Activation z-score (transcription regulator): −2.397 | SOX4 Predicted Activation State (transcription regulator): Inhibited | SP1 Activation z-score (transcription regulator): −2.444 | SP1 Predicted Activation State (transcription regulator): Inhibited | SPDEF Activation z-score (transcription regulator): 4.415 | SPDEF Predicted Activation State (transcription regulator): Activated | SPI1 Activation z-score (transcription regulator): −3.51 | SPI1 Predicted Activation State (transcription regulator): Inhibited | SPIB Activation z-score (transcription regulator): −2.933 | SPIB Predicted Activation State (transcription regulator): Inhibited | SPZ1 Activation z-score (transcription regulator): −2.022 | SPZ1 Predicted Activation State (transcription regulator): Inhibited | SREBF2 Activation z-score (transcription regulator): 2.277 | SREBF2 Predicted Activation State (transcription regulator): Activated | SRF Activation z-score (transcription regulator): −3.269 | SRF Predicted Activation State (transcription regulator): Inhibited | SRSF2 Activation z-score (transcription regulator): 2.328 | SRSF2 Predicted Activation State (transcription regulator): Activated | STAT1 Activation z-score (transcription regulator): −3.918 | STAT1 Predicted Activation State (transcription regulator): Inhibited | STAT3 Activation z-score (transcription regulator): −4.716 | STAT3 Predicted Activation State (transcription regulator): Inhibited | STAT4 Activation z-score (transcription regulator): −2.401 | STAT4 Predicted Activation State (transcription regulator): Inhibited | TCF4 Activation z-score (transcription regulator): −2.836 | TCF4 Predicted Activation State (transcription regulator): Inhibited | TCF7L1 Activation z-score (transcription regulator): 2.373 | TCF7L1 Predicted Activation State (transcription regulator): Activated | TEAD1 Activation z-score (transcription regulator): −3.036 | TEAD1 Predicted Activation State (transcription regulator): Inhibited | TEAD2 Activation z-score (transcription regulator): −3.153 | TEAD2 Predicted Activation State (transcription regulator): Inhibited | TEAD3 Activation z-score (transcription regulator): −3.638 | TEAD3 Predicted Activation State (transcription regulator): Inhibited | TEAD4 Activation z-score (transcription regulator): −2.143 | TEAD4 Predicted Activation State (transcription regulator): Inhibited | TFAP2C Activation z-score (transcription regulator): 2.899 | TFAP2C Predicted Activation State (transcription regulator): Activated | TFEB Activation z-score (transcription regulator): 2.587 | TFEB Predicted Activation State (transcription regulator): Activated | TP53 Activation z-score (transcription regulator): −3.365 | TP53 Predicted Activation State (transcription regulator): Inhibited | TWIST1 Activation z-score (transcription regulator): −2.987 | TWIST1 Predicted Activation State (transcription regulator): Inhibited | Tcf7 Activation z-score (transcription regulator): −3.984 | Tcf7 Predicted Activation State (transcription regulator): Inhibited | XBP1 Activation z-score (transcription regulator): 3.505 | XBP1 Predicted Activation State (transcription regulator): Activated | YAP1 Activation z-score (transcription regulator): −4.255 | YAP1 Predicted Activation State (transcription regulator): Inhibited
